According to patent publication US6013665A, “Method for enhancing the absorption and transport of lipid soluble compounds using structured glycerides” (Abbott Laboratories, priority 1997, dated 2000):
Where two headings read alike, the source gives them in different places.

Tests used:
[1] = cited from earlier work
[2] = set-up: species or system Male Sprague Dawley rats; conditions: rat, in vivo
Procedure: (§1) The results set forth in FIGS. 1-4 are statistically significant at p<0.01 (see *). A two way analysis of variance model was employed for each treatment, lipid type and their interaction effects in the model were used to compare the area under each curve. Models were extended to included contrast statements comparing the physical mix and the structured triglyceride within each treatment group.
(§2) This experiment was conducted to determine if a structured glyceride consisting of a co-randomized MCT/fish oil would enhance the absorption of lipophilic compounds such as vitamin E (tocopherol) and retinol (vitamin A) using a lymph fistula rat model based upon a procedure described by Fujimoto et al., "Effect of Ischemia-Reperfusion on Lipid Digestion and Absorption in Rat Intestine", Am. J. Physiol., 260: G595-G602 (1991), the entire teaching of which is hereby incorporated by reference. This model was designed to represent fat absorption mode of the healthy intestinal tract (i.e., not compromised through disease or ischemic event). The lymph fistula rat model is extremely accurate in measuring and quantitating lipid absorption.
(§3) The physical mix (Part A)and structured triglyceride component (Part B) of Example 1 were used. […].
(§4) Male Sprague Dawley rats weighing between 280 and 330 grams were all fed a normal Purina Rat Chow for one week. Rats were fasted overnight prior to surgery and under anesthesia, a laparotomy was performed, the intestinal lymph duct was cannulated according to the procedure of Tso et al., "The Absorption of Lipid and Lipoprotein Synthesis", Lipid Research Methodology, Chapter 5: 191-216 (1984) Alan R. Liss, Inc., N.Y., N.Y, the entire teaching of which is hereby incorportated by reference. […] A silicon infusion tube (1.6 mm OD) was placed in the stomach for infusion of saline, structured lipid/lipophilic compound or emulsified physical mix/lipophilic compound. The fundic incision was closed by a purse string suture. The animals were allowed to recover for 24 hours before experimental oil/lipophilic compound infusion began.
(§5) Animals were randomly assigned to two groups in this non-injury model. […].
(§6) Lymph was collected in pre-cooled tubes beginning hourly for eight (8) hours after initiation of lipid infusion. At the end of the lipid infusion, the animals were sacrificed by exsanguination.
(§7) Radioactivity was measured in an aqueous miscible scintillant (Poly-Fluor, Packard, Downers Grove, Ill.). Samples were counted for 10 minutes in a liquid scintillation spectrophotometer (LKB Model 1209, Pharmacia, Inc.). Samples were corrected for quenching by reference to a series of ^14 C and ^3 H standards that were progressively quenched.
Lymph lipids were extracted and the methyl ester derivatives of the fatty acids were analyzed using a Hewlett Packard Gas Chromatograph, Model 5890A with a capillary column packed with 10% SP-2330 on 80/100 Supelcoport (Supelco, Inc., Bellefonte, Pa.).

[3] = rat, in vivo
Procedure: as §1, §2, §3, §4, §5, §6, §7
This experiment was conducted in a manner similar to Example 2 except that the ischemic/reperfusion injury model was used. This model was used to simulate the lipid malabsorption conditions associated with diseases such as Short Bowel Syndrome, Crohn's disease and the like. Animals were divided into two groups and given the physical mix (Group A) or the structured triglyceride component (Group B) of Example 2.

[4] = cited from earlier work; remark: listed apart in the source
[5] = in vivo; cited from earlier work
[6] = in vivo; cited from earlier work; remark: listed apart in the source
[7] = rat, in vivo; cited from earlier work

CCCCCCCC/C=C\CCCCCCCC(=O)O [oleic acid]
absorption into the lymphatic system from an emulsion ([1]; rats with bile diversion, emulsion): well absorbed into the lymphatic system

CC1=C(/C=C/C(C)=C/C=C/C(C)=C/CO)C(C)(C)CCC1 [retinol]
lymph tocopherol and retinol output with structured glyceride component versus physical mix [2]: increased rapidly and maintained a significantly higher output
lymphatic retinol absorption, structured triglyceride component vs physical mix (FIG. 1) [2]: increased the lymphatic absorption of retinol over the entire 8 hour study period
amount of retinol to the lymphatic circulation, structured triglyceride component vs physical mixture, end of study (FIG. 3) [3]: more than twice the amount
lymphatic retinol absorption, structured triglyceride component vs physical mixture, initial 3 hour period (FIG. 3) [3]: about equal
retinol absorption, structured triglyceride component over physical mix, after about 3 hours (FIG. 3) [3]: enhancement in the retinol absorption over the physical mix

CCCCCCCC/C=C\CCCCCCCC(=O)OCC(COC(=O)CCCCCCC/C=C\CCCCCCCC)OC(=O)CCCCCCC/C=C\CCCCCCCC [triolein]
amount of lipid transported to the lymph ([4]; lymph fistula rat, same amount of fatty acid infused as triolein or phosphatidylcholine with vitamin E): similar

phosphatidylcholine
amount of lipid transported to the lymph ([4]; rat, in vivo): similar

α-tocopherol
intestinal absorption of vitamin E with MCT [5]: enhancing effect of MCT on intestinal absorption of vitamin E
α-tocopherol absorption by rat small intestine with polyunsaturated fatty acids in bile salt micelles [6]: depress α-tocopherol absorption
gastrointestinal absorption of lecithin-dispersed aqueous preparations of vitamin E with MCT [7]: significantly enhanced the absorption
lymphatic absorption of vitamin E from lecithin-dispersed aqueous preparations [7]: increase the lymphatic absorption of vitamin E
higher lymph output of the lipophilic compound with structured triglyceride compared to the corresponding physical mix [2]: ≥ 30%
lymph tocopherol and retinol output with structured glyceride component versus physical mix [2]: increased rapidly and maintained a significantly higher output
lymphatic tocopherol absorption, structured glyceride component vs physical mix (FIG. 2) [2]: enhances the lymphatic absorption of tocopherol over the entire 8 hour study period
absorption into the lymphatic system from an emulsion ([1]; rat, in vivo): poorly absorbed from the emulsion
transport of vitamin E into lymph, phosphatidylcholine vs triglyceride infusion ([4]; rat, in vivo): significantly reduced
higher lymph output of the lipophilic compound with structured triglyceride component compared to the corresponding physical mix [3]: ≥ 30%
lymphatic tocopherol absorption, structured triglyceride vs physical mix, after about 2 hours (FIG. 4) [3]: significantly enhanced level of lymphatic tocopherol absorption
tocopherol absorption, structured triglyceride component vs physical mix, initial 2 hour period (FIG. 4) [3]: essentially equal
